Paper PMC6789487, “Iminosugars: Effects of Stereochemistry, Ring Size, and N-Substituents on Glucosidase Activities” (Pharmaceuticals, 2019)
“And” between values parts separate entries of the source, which are not always exact repeats. Equal entries are not always repeated. Where two headings read alike, the source gives them in different places.

Legend:
[1] = target: almond β-glucosidase (EC 3.2.1.21); experiment: Almond β-glucosidase inhibition, p-nitrophenyl β-D-glucopyranoside substrate, 96-well plate; type: biochemical; conditions: β-Glucosidase from almonds; NI: no inhibition
Experimental: To broaden the scope of the analysis, β-glucosidase (almond) activity of the same set of compounds was conducted using the corresponding p-nitrophenyl β-D-glucopyranoside.
(§1) Biological assays: Yeast α-glucosidase (EC 3.2.1.20) and almond β-glucosidase (EC 3.2.1.21) activity was assessed using a 96-well plate assay. Assays contained 20 mM NaOAc at pH 6.8 (α-glucosidase) and pH 6.2 (β-glucosidase), 10 mM PIPES (piperazine-N,N′-bis(2-ethanesulfonic acid), 0.1 mM EDTA, α-glucosidase (5 μg/mL), β-glucosidase (6 μg/mL), and inhibitor (0.1–2 mM). Enzyme and inhibitor were equilibrated at 37 °C for 30 min. The reaction was initiated by the addition of p-nitrophenyl α-D-glucopyranoside (200 μM) or p-nitrophenyl β-D-glucopyranoside (200 μM), and then it was quenched with 100 μL of sodium carbonate 3.0 M after 25 min incubation at 37 °C. Assays were repeated in duplicate and data averaged.

[2] = target: T1, α-glucosidase (from Saccharomyces cerevisiae) (Saccharomyces cerevisiae, UniProt P53341); experiment: Yeast α-glucosidase inhibition, p-nitrophenyl α-D-glucopyranoside substrate, 96-well plate; type: biochemical
Experimental: as §1

[3] = tested on: β-glucosidase; conditions: cited from earlier work; for % β-glucosidase inhibition: at 1 mM
[4] = tested on: Bacillus stearothermophilus α-glucosidase; design: method as in PMID 9113331; conditions: cited from earlier work; for % α-glucosidase inhibition: tested at 1 mM in Bacillus stearothermophilus
[5] = target: T1, α-glucosidase (from Saccharomyces cerevisiae); experiment: Yeast α-glucosidase inhibition, p-nitrophenyl α-D-glucopyranoside substrate, 96-well plate; type: biochemical; conditions: tested concentration 15–2000 µM
[6] = tested on: yeast α-glucosidase; conditions: at 1 mM; cited from earlier work
[7] = NI: no inhibition, read-out: Inhibition (µM) α-Glucosidase (IC50)
[8] = read-out: Inhibition (µM) α-Glucosidase (IC50), NI: no inhibition

T1 sequence (P53341 whole entry): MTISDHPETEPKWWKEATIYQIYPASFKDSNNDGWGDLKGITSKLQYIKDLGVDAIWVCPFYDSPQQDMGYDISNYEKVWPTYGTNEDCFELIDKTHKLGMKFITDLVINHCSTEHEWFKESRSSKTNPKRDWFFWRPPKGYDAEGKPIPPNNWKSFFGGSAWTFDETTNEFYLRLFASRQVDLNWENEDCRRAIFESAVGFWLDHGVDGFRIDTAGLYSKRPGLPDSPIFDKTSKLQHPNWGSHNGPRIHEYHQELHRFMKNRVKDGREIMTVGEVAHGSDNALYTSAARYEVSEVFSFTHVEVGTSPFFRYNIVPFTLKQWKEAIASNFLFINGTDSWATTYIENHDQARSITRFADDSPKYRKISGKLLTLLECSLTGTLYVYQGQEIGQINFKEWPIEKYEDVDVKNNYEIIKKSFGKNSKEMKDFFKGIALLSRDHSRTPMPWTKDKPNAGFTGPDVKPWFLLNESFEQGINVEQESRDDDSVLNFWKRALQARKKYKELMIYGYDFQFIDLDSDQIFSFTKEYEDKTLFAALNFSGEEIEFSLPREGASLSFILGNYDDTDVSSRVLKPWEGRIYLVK

| SMILES | IC50 [1] | IC50 [2, 7] | other results |
| --- | --- | --- | --- |
| OC[C@H]1[C@@H](O)[C@H](O)[C@H](O)CN1CCc1ccccc1 [29a, N-Phenethyl-1,5-dideoxy-1,5-imino-L-gulitol] | > 2000 µM | > 2000 µM | – |
| OCCN1C[C@H](O)[C@@H](O)[C@H](O)[C@@H](O)C1 [41b, N-Hydroxyethyl-1,6-dideoxy-1,6-imino-L-iditol] | 4 ± 1.4 µM | 138 µM and 139 µM | – |
| O[C@H]1[C@H](O)[C@H](O)CN(CCc2ccccc2)C[C@H]1O [29b, N-Phenethyl-1,6-dideoxy-1,6-imino-D-mannitol] | > 2000 µM | > 2000 µM | – |
| OCCN1C[C@H](O)[C@@H](O)[C@H](O)[C@H]1CO [41a, N-Hydroxyethyl-1,5-dideoxy-1,5-imino-D-glucitol, reference compound] | 4 ± 1.5 µM | – | IC50 ([2]; Inhibition (µM) α-Glucosidase (IC50), NI: no inhibition): 41 µM and 41.3 µM |
| OCCN1C[C@@H](O)[C@@H](O)[C@H](O)[C@@H]1CO [28a, N-Hydroxyethyl-1,5-dideoxy-1,5-imino-L-gulitol] | > 2000 µM | – | IC50 [2, 8]: > 2000 µM |
| OC[C@@H]1NC[C@@H](O)[C@@H](O)[C@@H]1O [nonsubstituted L-gulo-piperidine, 1-deoxy-L-gulo-nojirimycin] | – | – | % β-glucosidase inhibition [3]: […]; % α-glucosidase inhibition [4]: 30% |
| CCCCN1C[C@H](O)[C@@H](O)[C@H](O)[C@H]1CO [40a, N-Butyl-1,5-dideoxy-1,5-imino-D-glucitol, reference compound] | – | – | IC50 [2, 8]: > 2000 µM; yeast α-glucosidase inhibition (in words) [5]: weak or no α-glucosidase inhibition |
| OC[C@H]1NC[C@H](O)[C@@H](O)[C@@H]1O [DNJ, 1-deoxynojirimycin, reference compound] | 33 µM and 33.1 µM | – | Ki [3]: […]; Ki ([4]; Bacillus stearothermophilus α-glucosidase): 0.44 µM |
| CCCCN1C[C@@H](O)[C@@H](O)[C@H](O)[C@H](O)C1 [27b, N-Butyl-1,6-dideoxy-1,6-imino-D-mannitol] | 184 µM and 185 µM | – | – |
| O[C@H]1[C@H](O)[C@H](O)CNC[C@H]1O [D-manno-azepane, 1,6-dideoxy-1,6-imino-D-mannitol] | – | – | % β-glucosidase inhibition [3]: 1%; % α-glucosidase inhibition [4]: 55% |
| CCCCN1C[C@@H](O)[C@@H](O)[C@H](O)[C@@H]1CO [27a, N-Butyl-1,5-dideoxy-1,5-imino-L-gulitol] | – | – | IC50 [2, 8]: > 2000 µM |
| OCCN1C[C@@H](O)[C@@H](O)[C@H](O)[C@H](O)C1 [28b, N-Hydroxyethyl-1,6-imino-D-mannitol] | > 2000 µM | > 2000 µM | – |
| C#CCN1C[C@@H](O)[C@@H](O)[C@H](O)[C@@H]1CO [26a, N-Propynyl-1,5-dideoxy-1,5-imino-L-gulitol] | 1716 ± 12.8 µM | > 2000 µM | – |
| C#CCN1C[C@H](O)[C@@H](O)[C@H](O)[C@@H](O)C1 [39b, N-Propynyl-1,6-dideoxy-1,6-imino-L-iditol] | 3440 ± 70.6 µM | > 2000 µM | yeast α-glucosidase inhibition (in words) [5]: weak or no α-glucosidase inhibition |
| C#CCN1C[C@@H](O)[C@@H](O)[C@H](O)[C@H](O)C1 [26b, N-Propynyl-1,6-dideoxy-1,6-imino-D-mannitol] | > 2000 µM | > 2000 µM | – |
| C#CCN1C[C@H](O)[C@@H](O)[C@H](O)[C@H]1CO [39a, N-Propynyl-1,5-dideoxy-1,5-imino-D-glucitol] | 636 ± 8.5 µM | > 2000 µM | yeast α-glucosidase inhibition (in words) [5]: weak or no α-glucosidase inhibition |
| CCCCN1C[C@H](O)[C@@H](O)[C@H](O)[C@@H](O)C1 [40b, N-Butyl-1,6-dideoxy-1,6-imino-L-iditol] | 80 ± 4.9 µM | > 2000 µM | % inhibition, α-glucosidase [6]: 14%; yeast α-glucosidase inhibition (in words) [5]: weak or no α-glucosidase inhibition |
